The subject of data set [1] is lesser grain borer (Rhizopertha dominica). The settings on record: in vivo.
The subject of data set [2] is adult house fly (Musca domestica). Conditions: in vivo.
For data set [3], the system named is brine shrimp (Artemia franciscana). Conditions: in vivo.
Data set [4] shares this test system. Kind of data set: whole plant or invertebrate.
Data set [5] concerns yellow fever mosquito (Aedes aegypti) larvae. Kind of data set: whole plant or invertebrate. The settings on record: 24 h, read-out: % mortality at 1 ppm.
The subject of data set [6] is adult house fly (Musca domestica). In words: whole plant or invertebrate. Conditions: topical, 24 h, read-out: Percentage mortality at 24 h.
The conditions of data set [7]: in vivo; cited from earlier work.
The test system of data set [8] is adult house fly (Musca domestica). Conditions: in vivo. This is another data set of the same source.
The test system of data set [9] is root-knot nematode (RKN) (Meloidogyne incognita) eggs. Conditions: in vivo.
Data set [10] has the same test system. Conditions: in vivo. This is another data set of the same source.
Data set [11] has as its system soil bacteria.
The test system of data set [12] is weed seeds in soil. The settings on record: in vivo.
Data set [13] concerns Saw-toothed grain weevil, Oryzaephilus surinamensis. The settings on record: in vivo; cited from earlier work.
Data set [14] concerns Bean weevil, Acanthoscelides obtectus. Conditions: in vivo; cited from earlier work.
Data set [15] concerns Granary weevil, Sitophilus granarius. Conditions: in vivo; cited from earlier work.
In data set [16] the test system is Confused flour beetle, Tribolium confusum. Conditions: in vivo; cited from earlier work.
The subject of data set [17] is Drugstore beetle, Stegobium paniceum. Conditions: in vivo; cited from earlier work.
Data set [18] has as its system soil microbial activity.
For data set [19], the system named is five stored products pests (granary weevil, drugstore beetle, confused flour beetle, bean weevil, saw-toothed grain beetle). The settings on record: in vivo; cited from earlier work.
The subject of data set [20] is house fly larvae (M. domestica). Conditions: in vivo; cited from earlier work.
[21] abbreviates: 24 h, read-out: % Mortality at 1 ppm.

≈ marks a conversion by molar mass, not a printed value. Where “and” joins values, the source holds several entries; their conditions need not be identical. Identical values can stand only once. Entries after “also recorded” stand apart in the source; their conditions may differ. Like-named read-outs stand apart in the source and are kept apart here. Bounds are passed on as bounds.

The values below come from US6545043B1 (priority 1997, dated 2003).

What is called LC50 is the concentration that kills 50% of the test population. Read a high LC50 as lower toxicity. In the case of `N#CC1(O)C=CCCC1` (stereo not drawn) [2-cyclohexen-1-one cyanohydrin], the LC50 in [1] and in data set [2] was greater than 20 µg/mL throughout.
Consider `CC=C(C)C(O)C#N` (stereo not drawn) [2-methyl-2-butenal cyanohydrin], for which the LC50 in data set [1] and in [2] was greater than 20 µg/mL in each case.
As for `CCC(C)C(O)C#N` (stereo not drawn) [2-methylbutyraldehyde cyanohydrin], the LC50 in data set [1] and in data set [2] was greater than 20 µg/mL each time.
Take `CCCC(C)C(O)C#N` (stereo not drawn) [2-methylvaleraldehyde cyanohydrin]: the LC50 in data set [1] and in data set [2] was greater than 20 µg/mL each time.
Regarding `N#CC(O)c1ccccc1[N+](=O)[O-]` (stereo not drawn) [2-nitromandelonitrile cyanohydrin], the LC50 in [1] and in [2] was greater than 20 µg/mL in each case.
On to `CC(C)C(C)(O)C#N` (stereo not drawn) [3-methylbutanone cyanohydrin], for which the LC50 in [1] and in data set [2] was greater than 20 µg/mL throughout.
One may read the mortality as the share of the test organisms that died. For the molecule `C=CCC#N` [AC, allyl cyanide], the “effectiveness as aquatic pesticide” value in data set [3] is reported as “very weak”. For the same molecule, the LC50 in data set [1] stood at 2.8 µg/mL (≈ 41.7 µM); in data set [2], 3.66 µg/mL (≈ 54.6 µM). The mortality at 1 ppm in [4] (setting [21]) was found to be 7%; in [5], 3%. Further, the mortality at 97 µg/fly in data set [6] amounted to 15%.
Regarding `C=CCN=C=S` [AITC, allyl isothiocyanate], the figures for the LC50 in data set [1] and in data set [2] were 1.57 µg/mL (≈ 15.8 µM) and 0.13 µg/mL (≈ 1.31 µM), respectively. For the same molecule, the figures for the mortality at 1 ppm in data set [4] (setting [21]) and in data set [5] were 97% and 83%, respectively. For the same molecule, the mortality at 99 µg/fly in data set [6] is 45%.
For the molecule `C=CCSC#N` [ATC, allyl thiocyanate], in data set [3], the “effectiveness as aquatic pesticide” value was “very weak”. The values for the mortality at 1 ppm in data set [4] (setting [21]) and in data set [5] were 47% and 57%, respectively. Besides, the mortality at 101 µg/fly in data set [6] worked out at 35%.
Take `CNC(=O)O/N=C/C(C)(C)SC` [Aldicarb]: in [7], the “mammalian LD50” value is listed as 1 mg/kg.
As for `C=CC(C#N)OC(=O)/C=C/c1ccccc1` (stereo not drawn) [CHP cinnamate], the “effectiveness as aquatic pesticide” value in data set [3] is listed as “moderately toxic”. Moreover, in data set [4], the mortality at 1 ppm came to 95%, the mortality at 10 ppm was found to be 100% and the mortality at 100 ppm is 100%. In addition, in data set [6], the mortality at 1 µg/fly stood at 0%, the mortality at 10 µg/fly is roughly 50% and the mortality at 100 µg/fly amounted to 87%.
In data set [4], `C=CC(C#N)OC(=O)CCCCCCCCC` (stereo not drawn) [CHP decanoate] had a mortality at 1 ppm of 15%, a mortality at 10 ppm of 95% and a mortality at 100 ppm of 100%. Besides, in [6], the mortality at 1 µg/fly stood at 0%, the mortality at 10 µg/fly was roughly 50% and the mortality at 100 µg/fly is 100%.
On to `C=CC(O)C#N` (stereo not drawn) [CHP, 3-cyano-3-hydroxy-1-propene], for which, in [1], the LC50 is 0.37 µg/mL (≈ 4.45 µM). The “effectiveness as topical pesticide” value in data set [8] is given as “relatively weak”. Moreover, the “percent hatch, highest in the 22-day observation period” value in data set [9] was no more than 34.4%. Also, in [6], the mortality at 9.8 µg/fly came out at 5% and the mortality at 98 µg/fly is 100%. For the same molecule, the LC50 in [2] amounted to 0.15 µg/mL (≈ 1.81 µM). Also, in data set [10], the “percent hatch, highest in the 22-day period” value is listed as no more than 19%.
As to `C=CC(C#N)OC(C)=O` (stereo not drawn) [CHP-Ace, CHP acetate], the LC50 in [1] stood at 0.37 µg/mL. Besides, in [11], the “Severity (bacteria and fungal colonies formed)” value was “completely inhibited growth; also recorded: No bacteria or fungal colonies”. In data set [9], the Percent hatch is 0.0% and 5.4% and 5.6% and 0.8% and 1.5% and 4.9% and 5.2% and 5.3%; the “percent hatch, highest in the 22-day observation period” value is no more than 5.6%. For the same molecule, in data set [6], the mortality at 10 µg/fly is 0% and the mortality at […] came out at 100%. For the same molecule, in [12], the “effect on post-emergent weeds (observation)” value was “kill post-emergent weeds”. In [2], the LC50 came out at 0.26 µg/mL and the “times less effective than dichlorvos” value is recorded as “about 20 times”. Moreover, the “percent hatch, highest in the 22-day period” value in data set [10] is reported as no more than 42.6%.
For `C=CC(C#N)OC(=O)C(C)(C)C` (stereo not drawn) [CHP-Piv, CHP pivalate], the LC50 worked out at 2.4 µg/mL (≈ 14.4 µM) in [1] and 1.37 µg/mL (≈ 8.19 µM) in data set [2]. Also, the mortality at 9.9 µg/fly in [6] turned out to be 0%. The mortality at 99 µg/fly in data set [6] is 80%.
Consider `C=CC(C#N)OC(=O)CC` (stereo not drawn) [CHP-Pro, CHP propionate], for which, in data set [1], the LC50 came to 0.70 µg/mL (≈ 5.03 µM) and the “times less effective than dichlorvos” value is on record as “about 2.5 times”. For the same molecule, in data set [6], the mortality at 9.7 µg/fly was determined as 0% and the mortality at 97 µg/fly is 100%. Also, in data set [2], the LC50 was 0.66 µg/mL (≈ 4.74 µM) and the “times less effective than dichlorvos” value is recorded as “about 60 times”.
For the molecule `CC(C)(O)C#N` [DMK-CNOH, dimethyl ketone cyanohydrin], the values for the LC50 in data set [1] and in [2] were 0.25 µg/mL (≈ 2.94 µM) and less than 0.07 µg/mL, respectively.
Take `C=CC1CNC(=S)O1` (stereo not drawn) [Goitrin, goitrin]: in data set [6], the mortality at 1 µg/fly was 5% and the mortality at 100 µg/fly was determined as 5%.
For `C=CC#N` [acrylonitrile], the “LC50 for 6 h” value in data set [13] was 0.8 µg/mL; in [14], 1.1 µg/mL; in data set [15], 2.0 µg/mL; in data set [16] it was 3.0 µg/mL; in [17], 1.7 µg/mL.
Take `S=C=S` [carbon disulfide]: the “LC50 for 6 h” value in data set [13] was 40.0 µg/mL; in [14] it was 29.0 µg/mL; in data set [15], 43.0 µg/mL; in data set [16], 75.0 µg/mL; in data set [17], 42.0 µg/mL.
Take `O=C(O)C=Cc1ccccc1` [cinnamic acid, reference compound]: in data set [4], the mortality at 1 ppm turned out to be 30%, the mortality at 10 ppm was 45% and the mortality at 100 ppm was 100%. The “effectiveness as topical pesticide” value in data set [8] is “not an effective biopesticide”. In data set [6], the mortality at 1 µg/fly amounted to 0%, the mortality at 10 µg/fly turned out to be 0% and the mortality at 100 µg/fly worked out at 0%.
In data set [4], `N#CC(O)/C=C/c1ccccc1` (stereo not drawn) [cinnamyl cyanohydrin] returned a mortality at 1 ppm of 25%, a mortality at 10 ppm of 15% and a mortality at 100 ppm of 100%. Moreover, the “effectiveness as topical pesticide” value in data set [8] is on record as “relatively weak”. Further, in data set [6], the mortality at 6 µg/fly was 9% and the mortality at 50 µg/fly is 100%.
`CC(C)=CCCC(C)CC(=O)O` (stereo not drawn) [citronellic acid, reference compound]: in data set [4], the mortality at 1 ppm was 40%, the mortality at 10 ppm was 65% and the mortality at 100 ppm turned out to be 100%. Also, in data set [6], the mortality at 1 µg/fly came out at 0%, the mortality at 10 µg/fly came out at 91% and the mortality at 100 µg/fly was determined as 100%.
Turning to `CC(C)=CCCC(C)CC(O)C#N` (stereo not drawn) [citronellyl cyanohydrin], the “effectiveness as topical pesticide” value in data set [8] is “not active”. Moreover, in [6], the mortality at 6 µg/fly turned out to be 14% and the mortality at 50 µg/fly is 10%.
In [4], `CC(C)=CCC/C(C)=C/C(O)C#N` (stereo not drawn) [citryl cyanohydrin] came in with a mortality at 1 ppm of 0%, a mortality at 10 ppm of 0% and a mortality at 100 ppm of 87%. In data set [8], the “Percentage mortality at 24 h” value turned out to be 9% and the “effectiveness as topical pesticide” value is on record as “not active”. Moreover, the mortality at 1 µg/fly in data set [6] worked out at 8%.
In data set [1], `COP(=O)(OC)OC=C(Cl)Cl` [dichlorvos, reference compound] yielded an LC50 of 0.29 µg/mL (≈ 1.31 µM). For the same molecule, the mortality at 1 µg/fly in data set [6] amounted to 95%.
Regarding `C1CO1` [ethylene oxide], the “LC50 for 6 h” value in data set [13] is 4.0 µg/mL; in [14] it was 10.5 µg/mL; in data set [15], 13.5 µg/mL; in data set [16] it was 27.5 µg/mL; in [17], 9.0 µg/mL.
For the molecule `N#CC(O)c1ccccc1` (stereo not drawn) [mandelonitrile], the “percent hatch, highest in the 22-day period” value in data set [10] is listed as no more than 29.7%.
Consider `CBr` [methyl bromide], for which the “LC50 for 6 h” value in [13] is 4.4 µg/mL; in [14], 4.2 µg/mL; in [15], 4.8 µg/mL; in [16], 9.2 µg/mL; in [17] it was 4.4 µg/mL. In data set [18], the “Severity of depression of microbial activity” value is listed as “Slightly Depressed; also recorded: severe depression; also recorded: Severely Depressed”. Further, the “LC50 values, range over five stored products pests” value in [19] is 4.2 to 9.2 µg/mL.
Consider `CC1(C)C(C=C(Cl)Cl)C1C(=O)OCc1cccc(Oc2ccccc2)c1` (stereo not drawn) [permethrin], for which, in [20], the mortality entry is recorded as “roughly 98%”.
`C=C(C)[C@H]1Cc2c(ccc3c2O[C@@H]2COc4cc(OC)c(OC)cc4[C@@H]2C3=O)O1` [rotenone, reference compound] yielded a mortality at 1 ppm in data set [4] of 100%.
On to “methyl ethyl ketone cyanohydrin [MEK-CNOH]”, for which the LC50 in data set [1] is 0.27 µg/mL; in [2] it was 0.09 µg/mL.
